Assay results taken from ChEMBL document CHEMBL1201862, “PubChem BioAssay data set” (2004).
Calls of active or inactive are those of the source.

Experiments:
[1] = target: Inward rectifier potassium channel 2 (Mus musculus, UniProt P35561); assay: Manual electrophysiological patch clamp assay for SAR compounds that inhibit/block inward-rectifying potassium ion channel Kir2.1. [Related pubchem assays: 1843 (Summary assay for Kir2.1 inhibitor assays.), 1672 (Primary HTS of 305616 compounds where 2592 were identified as active.)]; assay type: functional
[2] = target: Cytochrome P450 2D6 (Homo sapiens, UniProt P10635); assay: qHTS Assay for Inhibitors and Substrates of Cytochrome P450 2D6. [Related pubchem assays: 410 ]; assay type: ADME; details: read-out: Potency
[3] = target: Cytochrome P450 2C9 (Homo sapiens, UniProt P11712); details: Potency
[4] = target: Sphingosine 1-phosphate receptor 2 (Homo sapiens, UniProt O95136); assay: Dose Response Cell Based Assay for Agonists of the S1P2 Receptor of Purchased Analogues. [Related pubchem assays: 729, 843, 854, 736 ]; assay type: functional
[5] = Luminescence Cell-Based Dose Retest to Confirm Inhibitors of Cancer Stem Cells. [Related pubchem assays (depositor defined):AID2717, AID2721]; assay type: functional; details: Homo sapiens
[6] = target: Transitional endoplasmic reticulum ATPase (Homo sapiens, UniProt P55072, C522A); assay: Luminescence counterscreen assay for p97 inhibitors: dose response biochemical high throughput screening assay to identify inhibitors of the C522A mutant p97 ATPase: synthesized compounds. [Related pubchem assays: 1481, 1517, 1551 ]
[7] = target: Transitional endoplasmic reticulum ATPase (Homo sapiens, UniProt P55072); assay: Luminescence dose response biochemical high throughput screening assay for inhibitors of the p97 ATPase: synthesized compounds. [Related pubchem assays: 1481, 1517 ]
[8] = target: Lysosomal acid glucosylceramidase (Homo sapiens, UniProt P04062); assay: Dose response cell-based high throughput screening assay to identify enhancers of beta-glucosidase activity. [Related pubchem assays: 784 ]; assay type: functional
[9] = target: T1, Induced myeloid leukemia cell differentiation protein Mcl-1 (Homo sapiens, UniProt Q07820); assay: blockers of MCL1 binding to BIM peptide – biochemical, fluorescence polarization, BIM-BH3 peptide, 1536-well, dose response (AID 2217)
[10] = target: Bcl-2-like protein 1 (Homo sapiens, UniProt Q07817); assay: blockers of BCLXL peptide binding – biochemical, fluorescence polarization, 1536-well, selectivity assay for MCL1 inhibitor project, dose response (AID 2218)
[11] = target: T1, Induced myeloid leukemia cell differentiation protein Mcl-1; assay type: functional
[12] = target: Genome polyprotein (dengue virus type 2, UniProt P29990); assay: flavivirus cap methylation enzyme inhibition – biochemical, confirmation dose response, primary screen (AID 588689); assay type: functional
[13] = target: T2, Fatty acid synthase (Homo sapiens, UniProt P49327); assay: inhibition of human FAS-TE enzyme activity – biochemical, endpoint fluorescence intensity, uHTS hits, dose response (AID 624327); assay type: functional;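 note: fluorescence from hydrolysis of an O-methyl fluorescein acyl ester substrate by the enzyme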
[14] = target: T2, Fatty acid synthase; assay: inhibition of human FAS-TE enzyme activity – biochemical, kinetic fluorescence intensity, dose response (AID 624326); assay type: functional;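 note: rate of fluorescence rise from hydrolysis of a fluorogenic O-methyl fluorescein ester substrate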
[15] = mitochondrial function rescue without frataxin homolog – Friedreich's ataxia, plus single-dose screen, dose response (AID 1465); assay type: functional;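 note: yeast depleted of Yfh1p frataxin homolog grown on glycerol needing respiration; WST-1 tetrazolium dye reduction as measure of cellular dehydrogenase metabolic activity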
[16] = target: 26S proteasome non-ATPase regulatory subunit 14 (Homo sapiens, UniProt O00487); assay: inhibition of proteasome subunit RPN11 – biochemical, fluorescence polarization, uHTS hits, confirmation (AID 602368); assay type: functional
[17] = target: 72 kDa type IV collagenase (Homo sapiens, UniProt P08253); assay: Dose Response validation of uHTS RPN11 inhibitor hits using a MMP-2 Fluorescence assay.; assay type: functional
[18] = target: Prothrombin (Bos taurus, UniProt P00735); assay: thrombin protease inhibitors – biochemical, fluorescence polarization, uHTS hits, dose response (AID 602369); assay type: functional
[19] = luciferase reporter signal reduction – luminescence, H4-C neuroglioblastoma cells, dose response (AID 2458); assay type: functional, cell-based;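 note: H4 neuroglioblastoma cells stably carrying a luciferase reporter gene fusion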
[20] = test system: BJ; assay: BJ-TERT fibroblast viability loss – cell-based, RAS-independent, luminescence, dose response (AID 1933); assay type: functional; details: Homo sapiens
[21] = cells; assay type: functional, cell-based
[22] = alpha-synuclein stem-loop luciferase translation blockers – H4 neuroglioma cells, luminescence, confirmation (AID 1988); assay type: functional, cell-based
[23] = test system: BJ; assay: cells; assay type: functional, cell-based; details: Homo sapiens
[24] = test system: BJ; assay: BJ-TERT-LT-ST fibroblast viability loss – cell-based, RAS-independent, luminescence, dose response (AID 1935); assay type: functional; details: Homo sapiens;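 note: BJ fibroblasts immortalized with TERT plus LT and ST oncogenes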
[25] = DRD fibroblast viability loss – cell-based, non-viral oncogenic, luminescence, dose response (AID 1934); assay type: functional; details: Homo sapiens
[26] = alpha-synuclein stem-loop translation blockers – luminescence, H4 neuroglioblastoma cells, dose confirmation, confirmation (AID 2454); assay type: functional, cell-based;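 note: H4 neuroglioblastoma cells carrying an alpha-synuclein 5'UTR luciferase reporter; potency for inhibition of the luciferase signal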

T2 sequence (P49327 whole entry): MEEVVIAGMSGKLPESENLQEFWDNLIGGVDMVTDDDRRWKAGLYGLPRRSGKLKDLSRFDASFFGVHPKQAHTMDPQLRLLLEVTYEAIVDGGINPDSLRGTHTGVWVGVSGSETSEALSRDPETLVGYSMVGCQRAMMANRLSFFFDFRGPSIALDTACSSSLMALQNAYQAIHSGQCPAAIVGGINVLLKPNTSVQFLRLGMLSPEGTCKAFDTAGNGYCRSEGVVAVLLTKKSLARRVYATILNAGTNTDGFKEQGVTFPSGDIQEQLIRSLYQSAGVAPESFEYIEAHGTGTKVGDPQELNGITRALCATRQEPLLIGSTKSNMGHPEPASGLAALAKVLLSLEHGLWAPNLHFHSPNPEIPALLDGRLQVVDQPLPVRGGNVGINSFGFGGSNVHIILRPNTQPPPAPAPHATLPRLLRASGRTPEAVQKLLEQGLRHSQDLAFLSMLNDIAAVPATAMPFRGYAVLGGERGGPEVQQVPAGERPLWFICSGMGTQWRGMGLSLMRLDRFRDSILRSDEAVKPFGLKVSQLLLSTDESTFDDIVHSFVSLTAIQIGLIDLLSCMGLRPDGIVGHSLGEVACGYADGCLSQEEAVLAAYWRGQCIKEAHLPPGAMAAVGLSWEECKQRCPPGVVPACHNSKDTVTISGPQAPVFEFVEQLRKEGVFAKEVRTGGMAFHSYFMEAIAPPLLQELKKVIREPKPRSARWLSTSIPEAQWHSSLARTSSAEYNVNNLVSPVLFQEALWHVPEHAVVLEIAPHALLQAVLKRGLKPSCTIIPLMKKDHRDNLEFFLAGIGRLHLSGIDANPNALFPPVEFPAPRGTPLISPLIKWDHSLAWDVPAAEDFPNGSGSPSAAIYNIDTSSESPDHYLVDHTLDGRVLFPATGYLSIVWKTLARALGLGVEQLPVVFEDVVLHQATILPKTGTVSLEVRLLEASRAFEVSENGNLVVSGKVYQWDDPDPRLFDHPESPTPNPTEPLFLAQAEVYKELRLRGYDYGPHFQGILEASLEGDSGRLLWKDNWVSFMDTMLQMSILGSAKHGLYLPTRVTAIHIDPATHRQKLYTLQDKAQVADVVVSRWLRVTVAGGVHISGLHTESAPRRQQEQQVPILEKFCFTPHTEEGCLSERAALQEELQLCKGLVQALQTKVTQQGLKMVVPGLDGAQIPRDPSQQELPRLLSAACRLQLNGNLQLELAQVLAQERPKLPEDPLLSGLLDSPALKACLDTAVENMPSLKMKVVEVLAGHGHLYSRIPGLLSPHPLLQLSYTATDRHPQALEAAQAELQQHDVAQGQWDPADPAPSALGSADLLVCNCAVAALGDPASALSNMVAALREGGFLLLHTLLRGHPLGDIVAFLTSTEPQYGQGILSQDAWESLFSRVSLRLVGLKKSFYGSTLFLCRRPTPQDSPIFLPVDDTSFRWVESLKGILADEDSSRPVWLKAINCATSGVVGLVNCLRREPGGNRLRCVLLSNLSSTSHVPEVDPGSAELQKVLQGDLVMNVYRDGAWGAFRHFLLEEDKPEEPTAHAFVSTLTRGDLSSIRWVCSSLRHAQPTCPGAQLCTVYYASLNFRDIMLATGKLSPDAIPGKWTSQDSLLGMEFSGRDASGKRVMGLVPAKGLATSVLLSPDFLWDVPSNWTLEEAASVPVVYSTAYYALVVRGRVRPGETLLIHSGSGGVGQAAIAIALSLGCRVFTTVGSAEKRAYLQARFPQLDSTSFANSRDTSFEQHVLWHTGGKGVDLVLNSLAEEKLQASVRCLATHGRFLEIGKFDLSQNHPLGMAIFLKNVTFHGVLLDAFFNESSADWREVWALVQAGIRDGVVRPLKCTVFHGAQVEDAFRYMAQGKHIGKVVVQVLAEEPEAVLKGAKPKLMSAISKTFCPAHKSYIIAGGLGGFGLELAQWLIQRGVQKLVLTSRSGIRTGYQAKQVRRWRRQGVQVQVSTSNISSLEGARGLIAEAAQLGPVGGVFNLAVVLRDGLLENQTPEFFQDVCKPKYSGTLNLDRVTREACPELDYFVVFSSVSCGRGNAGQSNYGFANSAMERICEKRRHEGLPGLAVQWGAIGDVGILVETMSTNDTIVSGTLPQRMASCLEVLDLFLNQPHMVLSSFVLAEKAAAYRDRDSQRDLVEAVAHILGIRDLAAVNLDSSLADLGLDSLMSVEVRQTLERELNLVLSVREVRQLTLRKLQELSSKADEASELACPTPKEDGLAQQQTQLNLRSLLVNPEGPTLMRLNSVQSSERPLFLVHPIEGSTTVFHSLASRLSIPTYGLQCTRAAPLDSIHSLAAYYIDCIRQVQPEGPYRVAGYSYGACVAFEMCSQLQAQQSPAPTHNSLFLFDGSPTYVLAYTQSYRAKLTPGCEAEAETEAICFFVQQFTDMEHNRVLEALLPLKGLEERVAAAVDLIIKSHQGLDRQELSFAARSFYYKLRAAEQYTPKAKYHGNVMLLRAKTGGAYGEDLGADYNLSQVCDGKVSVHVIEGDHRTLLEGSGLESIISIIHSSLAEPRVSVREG
T1 sequence (Q07820 whole entry): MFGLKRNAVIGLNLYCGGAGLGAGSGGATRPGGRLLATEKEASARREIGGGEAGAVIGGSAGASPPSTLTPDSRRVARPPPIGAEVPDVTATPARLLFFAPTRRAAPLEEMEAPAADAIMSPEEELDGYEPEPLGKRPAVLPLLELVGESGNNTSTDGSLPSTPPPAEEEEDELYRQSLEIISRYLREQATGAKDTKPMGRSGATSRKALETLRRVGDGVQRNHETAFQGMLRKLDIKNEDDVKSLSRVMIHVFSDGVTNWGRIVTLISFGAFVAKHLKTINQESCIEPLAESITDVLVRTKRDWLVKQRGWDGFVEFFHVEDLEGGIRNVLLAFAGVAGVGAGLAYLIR
Cytochrome P450 2D6, sequence (P10635 whole entry): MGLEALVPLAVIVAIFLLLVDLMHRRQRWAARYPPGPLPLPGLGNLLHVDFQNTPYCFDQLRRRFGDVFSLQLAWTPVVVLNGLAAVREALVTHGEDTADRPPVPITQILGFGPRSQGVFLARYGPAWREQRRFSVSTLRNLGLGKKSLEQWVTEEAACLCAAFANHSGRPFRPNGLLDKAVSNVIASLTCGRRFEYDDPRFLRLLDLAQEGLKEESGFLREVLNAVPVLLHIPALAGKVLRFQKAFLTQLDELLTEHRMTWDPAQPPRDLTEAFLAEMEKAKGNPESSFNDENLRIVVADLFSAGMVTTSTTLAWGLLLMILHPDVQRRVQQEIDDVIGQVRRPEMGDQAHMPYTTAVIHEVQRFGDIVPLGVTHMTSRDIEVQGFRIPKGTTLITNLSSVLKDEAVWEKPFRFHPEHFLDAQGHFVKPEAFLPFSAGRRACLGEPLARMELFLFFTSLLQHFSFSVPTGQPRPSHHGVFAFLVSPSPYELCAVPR
Cytochrome P450 2C9, sequence (P11712 whole entry): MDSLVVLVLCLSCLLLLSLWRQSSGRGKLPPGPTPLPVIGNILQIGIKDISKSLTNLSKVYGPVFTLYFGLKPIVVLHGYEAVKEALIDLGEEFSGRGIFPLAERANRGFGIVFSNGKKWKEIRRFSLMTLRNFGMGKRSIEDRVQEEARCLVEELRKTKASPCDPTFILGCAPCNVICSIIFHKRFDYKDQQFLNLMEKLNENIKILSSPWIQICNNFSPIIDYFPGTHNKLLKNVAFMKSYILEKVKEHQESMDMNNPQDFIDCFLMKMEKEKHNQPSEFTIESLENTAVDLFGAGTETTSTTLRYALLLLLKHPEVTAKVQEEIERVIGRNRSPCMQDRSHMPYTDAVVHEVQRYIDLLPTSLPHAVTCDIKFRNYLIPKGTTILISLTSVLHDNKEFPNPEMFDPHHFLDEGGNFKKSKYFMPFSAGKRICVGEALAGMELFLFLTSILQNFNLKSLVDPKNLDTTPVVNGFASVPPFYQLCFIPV
72 kDa type IV collagenase, sequence (P08253 whole entry): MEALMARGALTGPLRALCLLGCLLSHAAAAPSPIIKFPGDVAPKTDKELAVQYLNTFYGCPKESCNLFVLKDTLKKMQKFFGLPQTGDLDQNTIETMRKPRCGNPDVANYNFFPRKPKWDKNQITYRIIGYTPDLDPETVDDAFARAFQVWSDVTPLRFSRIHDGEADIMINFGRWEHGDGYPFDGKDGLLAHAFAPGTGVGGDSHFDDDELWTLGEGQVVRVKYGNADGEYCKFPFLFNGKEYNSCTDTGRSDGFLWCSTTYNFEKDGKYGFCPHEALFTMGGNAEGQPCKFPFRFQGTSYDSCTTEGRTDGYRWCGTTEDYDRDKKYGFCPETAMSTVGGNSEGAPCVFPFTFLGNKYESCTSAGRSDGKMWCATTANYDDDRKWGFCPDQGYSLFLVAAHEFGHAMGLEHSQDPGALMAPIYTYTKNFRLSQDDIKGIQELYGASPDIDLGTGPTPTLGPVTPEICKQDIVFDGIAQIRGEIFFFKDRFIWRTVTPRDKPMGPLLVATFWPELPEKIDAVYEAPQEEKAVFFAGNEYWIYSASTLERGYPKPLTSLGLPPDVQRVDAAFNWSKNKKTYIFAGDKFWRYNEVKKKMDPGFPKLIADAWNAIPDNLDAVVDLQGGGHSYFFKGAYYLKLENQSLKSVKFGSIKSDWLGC
Sphingosine 1-phosphate receptor 2, sequence (O95136 whole entry): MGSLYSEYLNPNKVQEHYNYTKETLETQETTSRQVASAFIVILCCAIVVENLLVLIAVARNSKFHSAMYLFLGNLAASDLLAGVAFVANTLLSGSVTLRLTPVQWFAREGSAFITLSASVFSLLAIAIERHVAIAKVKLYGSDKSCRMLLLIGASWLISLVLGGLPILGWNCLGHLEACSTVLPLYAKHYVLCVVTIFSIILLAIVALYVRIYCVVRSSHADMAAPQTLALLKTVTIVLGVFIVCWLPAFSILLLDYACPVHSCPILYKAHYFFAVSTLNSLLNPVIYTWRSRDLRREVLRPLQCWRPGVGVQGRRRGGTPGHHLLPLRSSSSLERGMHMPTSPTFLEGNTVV

COc1ccc(CNCc2cc(F)cc(F)c2)cc1
IC50 [1]: 7.22 µM (active)

CC(=O)OC(C)(C)/N=N\c1ccc(Br)cc1
AC50 [2]: 3.16 µM (inconclusive) | AC50 [3]: 5.01 µM (inconclusive)

Cc1cc(C(=O)CN2C(=O)C(=O)N(Cc3ccccc3)C2=O)c(C)n1Cc1ccccc1
EC50 [4]: > 30 µM (not active) | AC50 [5]: 2.54 µM (active)

N#C/C=C/c1ccccc1Nc1ccc(S(N)(=O)=O)cc1
IC50 [6]: > 50 µM (not active) | IC50 [7]: > 50 µM (not active)

N#Cc1c2n(c3c(=O)n(Cc4ccccc4Cl)cnc13)CCCCC2
EC50 [8]: > 50 µM (not active)

O=C(O)COc1ccccc1C(Nc1ccccn1)c1cc(Cl)c2cccnc2c1O (stereo unspecified)
IC50 [9]: 1.74 µM (active) | IC50 [10]: > 109 µM (not active) | IC50 [11]: 9.35 µM (active) | IC50 [12]: 43.3 µM (active) | IC50 [13]: 18.5 µM (active) | IC50 [14]: 14.3 µM (active)

CC(=O)N1CCc2cc(NN=C3C(=O)CC(C)(C)CC3=O)ccc21
EC50 [15]: > 100 µM (active) | IC50 [16]: 35.5 µM (active) | IC50 [17]: > 100 µM (inactive) | IC50 [18]: 31.5 µM (active)

CCOc1ccc(S(=O)(=O)Nc2cc(OC)ccc2OC)cc1
EC50 [19]: 0.553 µM (active) | EC50 [20]: 0.451 µM (active) | EC50 [21]: 0.839 µM (active) | EC50 [22]: < 0.1 µM (active) | EC50 [23]: 21.2 µM (active) | EC50 [24]: 0.495 µM (inconclusive) | EC50 [25]: 0.965 µM (inconclusive) | EC50 [26]: 0.947 µM (active)
